Consider one molecule from patent US20100099698A1, “Compositions for Improving Skin Conditions Comprising Matrine or Its Oxidized Derivatives” (Biospectrum Inc., priority 2007, published 2010).

The test system of one assay is B16 mouse melanoma cells. The assay is described as follows: Inhibition of melanin production in melanoma cells. The format is cell-based. The conditions noted are these: 72 h, 100 μM, 3 days, read-out: Inhibitory rate of melanin production (%). The method, then: After measuring the inhibition of melanin production by matrine and oxymatrine using B16 mouse melanoma cells (Korean Cell Line Bank), the measurement was compared with that for the inhibition of melanin production by arbutin, known as a melanin production inhibitor.
B16 mouse melanoma cells F10 (Korean Cell Line Bank) were seeded into each well of a 6-well plate (1×10^5 cells/well) in DMEM (Dulbecco's modified Eagle's media) containing 10% FBS (fetal bovine serum) and the cells were cultured to about more than 80% confluence by incubating in a CO2 incubator under conditions of 37° C. and 5.0% CO2. After cultivation, the medium was removed and samples were replaced in medium diluted at suitable concentration, followed by incubating for 3 days under conditions of 37° C. and 5.0% CO2. […] The cells removing medium were washed with PBS (phosphate buffer saline) and treated with trypsin to collect cells. Number of the collected cells was calculated using hematocytometer (Tiefe Depth Profondeur 0.100 mm, Paul Marienfeld GmbH & Co. KG, D.E), centrifuged at 5,000 to 10,000 rpm for 10 min and the supernatant was eliminated, thereby obtaining pellets. This cell pellets were dried at 60° C., 100 μl of 1M NaOH containing 10% DMSO was added to thereto, and intracellular melanin was obtained in incubator at 60° C. Then, the cell solution was measured for absorbance at 490 nm using microplate reader (Bio-Tek ELx8081U, U.S) and the amount of melanin per cell constant number was estimated.

The next assay has as its target T1, tyrosinase (Mus musculus, UniProt P11344).
T1 construct: This cell pellets were lysated using lysis buffer, centrifuged at 12,000 rpm for 10 min and the supernatant was collected; endogenous in cells; host or cells: B16 F1 mouse melanoma cells (Korean Cell Line Bank)
T1 sequence (P11344 19-533): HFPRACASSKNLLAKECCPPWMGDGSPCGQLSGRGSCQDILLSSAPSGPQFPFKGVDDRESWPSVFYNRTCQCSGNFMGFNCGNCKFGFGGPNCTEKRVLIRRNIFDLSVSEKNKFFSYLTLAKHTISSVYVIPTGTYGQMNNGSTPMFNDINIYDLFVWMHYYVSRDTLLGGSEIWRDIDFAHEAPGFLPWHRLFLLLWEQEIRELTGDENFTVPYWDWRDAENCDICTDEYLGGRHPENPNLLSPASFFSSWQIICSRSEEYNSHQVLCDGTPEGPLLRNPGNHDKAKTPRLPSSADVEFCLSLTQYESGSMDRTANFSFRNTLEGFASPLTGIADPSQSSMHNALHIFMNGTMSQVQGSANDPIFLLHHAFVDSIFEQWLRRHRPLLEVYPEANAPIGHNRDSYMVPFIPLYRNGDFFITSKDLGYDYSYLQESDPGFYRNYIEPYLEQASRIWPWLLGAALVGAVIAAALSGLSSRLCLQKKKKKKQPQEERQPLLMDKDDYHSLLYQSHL
Put plainly: Inhibition of intracellular tyrosinase activity in melanoma cells. In kind it is cell-based, Murine. The conditions noted are these: B16-F1; 100 μM, 3 days, B-16 F1 cells; read-out: Inhibitory rate of intracellular tyrosinase activity (%). The method, then:
After measuring the inhibition of melanin production by matrine and oxymatrine using B16 mouse melanoma cells (Korean Cell Line Bank), the measurement was compared with that for the inhibition of intracellular tyrosinase activities by arbutin, known as a melanin production inhibitor.
Murine melanoma (B-16 F1) cells were seeded into each well of a 6-well plate (1×10^5 cells/well) in DMEM containing 10% FBS (fetal bovine serum) and the cells were cultured to about more than 80% adherence by incubating in a CO2 incubator under conditions of 37° C. and 5.0% CO2. After cultivation, the medium was removed and samples were replaced in medium diluted at suitable concentration, followed by incubating for 3 days under conditions of 37° C. and 5.0% CO2. […] The cells removing medium were washed with PBS (phosphate buffer saline) and treated with trypsin to collect cells. Number of the collected cells was calculated using hematocytometer, centrifuged at 5,000 to 10,000 rpm for 10 min and the supernatant was eliminated, thereby obtaining pellets. This cell pellets were lysated using lysis buffer, centrifuged at 12,000 rpm for 10 min and the supernatant was collected. Then, the cell solution was measured for absorbance at 492 nm using microplate reader and the activity of tyrosinase per cell constant number was estimated.

A further assay concerns pigmentation of skin. Put plainly: Skin whitening of UV-induced pigmentation, chromameter L* value. The format is in vivo, brown guinea pigs. The conditions noted are these: 1.0 %, topical once or twice a day for 50 days, UV-pigmented abdominal skin. The method, then: A whitening effect of matrine and oxymatrine was measured using brown guinea pigs (Charles River Laboratories, Inc.), known to increase its pigmentation upon exposure to ultraviolet light, like in humans. To cause pigmentation in the brown guinea pig by ultraviolet (UV), aluminum foil with square windows of 3×3 cm^2 was adhered to hair-removed abdominal skin of brown guinea pig, and then UV light was irradiated thereon with a SE lamp (wavelength 290-320 nm, Toshiba) (total irradiation energy=1350 mJ/cm^2). After UV irradiation, the aluminum foil was removed and samples (matrine, oxymatrine or albutin) were applied as the following method. […] From the maximum, samples were applied. Applications performed once or twice a day for 50 days. […] The control with only the solvent was applied to another site. Occurrence of cumulative irritation also was examined. The degree of pigmentation of skin was determined using a chromameter (CR2002, MINOLTA, JP) to estimate the effects of applied samples. L*a*b* colorimetric system was used to classify color and L* value was used as standard in the present invention. The L* value was corrected using white board standard and was measured more than five times at one site, repeatedly. Pigmentation was evenly distributed. Skin color differences (ΔL*) between application initial point and application terminal point were obtained and then using these values, their effects of the applied samples were estimated. ΔL*=L* value at […] after application-L* value at application initial day. Equation 1 ΔL* values were obtained both at sample application site and control application site and compared, whereby the effects of the whitening substances can be estimated.

On to `OC[C@H]1O[C@@H](Oc2ccc(O)cc2)[C@H](O)[C@@H](O)[C@@H]1O` [Albutin, arbutin, reference compound], for which the inhibition at 100 µM in the assay on B16 mouse melanoma cells was 26%; at tyrosinase it was 29%. In addition, the “Whitening effects (ΔL)” value with pigmentation of skin amounted to 0.49.
